Laboratory results published in patent publication US10487313B2, “Efficient induction of definitive endoderm from pluripotent stem cells” (Novo Nordisk A/S, priority 2011, dated 2019).

B1: Wnt3a: the Wnt receptor ligand Wnt3a (protein, UniProt P56704 19-352, looked up)
Protein Wnt-3a: SYPIWWSLAVGPQYSSLGSQPILCASIPGLVPKQLRFCRNYVEIMPSVAEGIKIGIQECQHQFRGRRWNCTTVHDSLAIFGPVLDKATRESAFVHAIASAGVAFAVTRSCAEGTAAICGCSSRHQGSPGKGWKWGGCSEDIEFGGMVSREFADARENRPDARSAMNRHNNEAGRQAIASHMHLKCKCHGLSGSCEVKTCWWSQPDFRAIGDFLKDKYDSASEMVVEKHRESRGWVETLRPRYTYFKVPTERDLVYYEASPNFCEPNPETGSFGTRDRTCNVSSHGIDGCDLLCCGRGHNARAERRREKCRCVFHWCCYVSCQECTRVYDVHTCK

Legend:
hES SA121 cells = experiment: CHIR specificity: cell survival after 24 h pre-treatment prior to AA addition; assay type: cell-based, human; conditions: 24 h pre-treatment with BIO (0.5 μM) or AA alone (100 ng/ml), then AA
Procedure: (§1) hES SA121 and ChIPS4 cells were treated with either CHIR (3 μM), BIO (0.5 μM), Wnt3a (200 ng/ml) or AA alone (100 ng/ml) for 24 h prior to AA addition to show CHIR specificity (d1). Additionally, D'Amour (protocol as described in Kroon et al 2008) was tested in parallel.
The data clearly illustrated that PS transition (upregulation of Brachyury) and DE induction (upregulation of SOX17) were both accelerated and much higher after CHIR treatment compared to pretreatment with growth factors such as AA and Wnt3a.

[1] = system: SA121 hES and chIPS4 iPS cells; experiment: Quantitative real-time PCR of PS and DE markers (Brachyury, SOX17) during DE induction; assay type: cell-based, human; conditions: for Brachyury (PS) response timing compared to CHIR treatment: Wnt3a (200 ng/ml) or BIO (0.5 μM) 24 h instead of CHIR, upregulated D2
Procedure: Human embryonic stem (hES) cells SA121 and chIPS4 (Cellartis) were grown on human fibronectin (Sigma) in DEF culture media (Cellartis) with 30 ng/ml bFGF (Invitrogen) and 10 ng/ml Noggin (Peprotech) in 6-96 well plates. Cells were single cell passaged with Rock inhibitor Y-27632 (Calbiochem) and seeded at a density of 40000 cells/cm2 for experiments. Experiments were initiated 4 d after passage.
Confluent cultures were washed once in RPMI1640 (Invitrogen) before 24 hour pre-treatment with 0,5-7μM CHIR99021 (Stemgent) in RPMI. Control cells were left untreated in RPMI and D'Amour cells were either left in RPMI or treated with AA (Peprotech)+Wnt3a (R&D Systems) without pre-treatment depending on experimental setup.
After 24 hours, pretreated and control cells were washed once with RPMI before adding 100 ng/ml AA in RPMI. D'Amour cells were also treated with 100 ng/ml AA but with 0,2% FBS instead of B27. 24 h later, 2% B27 (Invitrogen) was added to the AA media for 2-3 d. Control cells were treated with B27 to prevent cell death and D'Amour cells with 2% FBS according to published protocol. Media was changed every day.
RNA samples were collected after 24 h pre-treatment (D1), after 1 day of AA treatment (D2) and after 1-2 d of AA+B27 treatment (D3-4). Total RNA was extracted with the Rneasy Plus Mini kit (Qiagen) and quantitative real-time PCR was performed using the StepOnePLus system (Applied Biosystems).
Undifferentiated SA121 hES and chIPS4 iPS cells in DEF media (DO) were cultured either in RPMI without CHIR (Ctrl D1) or treated for 24 h with CHIR in RPMI (CHIR D1). The cells were then washed to ensure absence of CHIR and then both conditions were treated with 1 d AA (Ctrl and CHIR d2). […] T fold inductions after 24 h CHIR treatment spanned between 500-100000 compared to undifferentiated cells (d0). T protein levels were also confirmed with ICC (FIG. 2C).
The efficiency levels for both T and SOX17 were highly robust (n>60) and confirmed with IHC and SOX17 quantifications (FIG. 2C and Table 2.). […] SOX17 expression peaked already after one day of AA treatment when cells were subjected to CHIR for 24 h before AA induction.
as §1
Chir was titrated at concentrations between 1-7 uM and analyzed after 24 h Chir treatment (D1) and after 2 d of following AA treatment (D3).

| Molecule | cell survival until day 3 (hES SA121 cells) | time of SOX17 induction peak after AA ([1]; CHIR-priming step 24 h then AA, versus AA alone) | Brachyury (PS) response timing compared to CHIR treatment [1] |
| --- | --- | --- | --- |
| AA: Activin A, growth factor used for definitive endoderm induction | did not survive until day 3 | 3 to 4 days | – |
| O=C1Nc2cc(Br)ccc2/C1=C1/Nc2ccccc2/C1=N\O [BIO] | did not survive until day 3 | – | delayed |
| B1 | – | – | delayed |
